Earlier results in patent US8907090B2, “Processes for preparing different forms of (S)-(+)-Clopidogrel bisulfate” (Cadila Healthcare Limited, priority 2003, dated 2014).

Experiments:
[1] = comparison of enantiomers
platelet aggregation = settings: comparison of enantiomers

SMILES | tolerance [1] | antiaggregant platelet activity (platelet aggregation)
COC(=O)C(c1ccccc1Cl)N1CCc2sccc2C1 (single isomer, unassigned) [levorotatory enantiomer] | less tolerated | less active
COC(=O)[C@H](c1ccccc1Cl)N1CCc2sccc2C1 (single isomer, unassigned) [dextrorotatory enantiomer] | – | excellent antiaggregant platelet activity
